The source of these data is US5736559A, “Biphenyl derivatives, pharmaceutical compositions containing these compounds and processes for preparing them” (Karl Thomae GmbH, priority 1991, dated 1998).

The target of series [1] is Fibrinogen binding to human thrombocytes. The experiment in a line: Fibrinogen binding to human thrombocytes. The following applies: 125I fibrinogen; gel-filtered human platelets; ADP; 20 minutes at ambient temperature; read-out: Fibrinogen binding test IC50. How it is done: Fibrinogen binding to human thrombocytes The blood obtained by puncturing an antecubital vein is anticoagulated with trisodium citrate (final concentration: 13 mM) and centrifuged for 10 minutes at 170 xg. The supernatant platelet-rich plasma is poured onto a Sepharose 2B column (Pharmacia) and eluted with a solution of 90 mM common salt, 14 mM trisodium citrate, 5 mM glucose and 50 mM Tris(hydroxymethyl)aminomethane, adjusted to pH 7.4. The gel-filtered platelets (GFP) appearing before the plasma proteins are used for the binding experiments. 50 μl of a 60 mM calcium chloride solution, 50 μl of a 0.6 mM adenosine diphosphate solution, 100 μl of substance solution or solvent and 50 μl of fibrinogen solution (containing 3 μg of ^125 I fibrinogen) are added to 750 μl of GFP and incubated for 20 minutes at ambient temperature. The non-specific binding is determined in the presence of 3 mg/ml of cold fibrinogen. 900 μl of the incubated material are carefully pipetted onto 250 μl of silicon oil (AP 38: AR 20, 1:2 v/v, Wacker Chemie) in Eppendorf tubes and centrifuged for 2 minutes at 10,000 xg. The aqueous supernatant and some of the oil are drawn off, the tips of the tubes are cut off together with the platelet pellet and the quantity of bound fibrinogen is determined in a gamma counter. The concentration of substance which brings about a 50% inhibition in fibrinogen binding is determined from a series of concentrations and is given as the IC50 value.

Another series concerns mice. The experiment in a line: tolerability after intravenous administration in mice. The series is classed as in vivo. The following applies: for sedation during the injection phase: mouse, in vivo, iv, 30 mg/kg.
The subject of series [2] is thrombocyte (platelet) aggregation. The experiment in a line: Antithrombotic activity: collagen-induced thrombocyte aggregation in platelet rich plasma (Born and Cross). It is filed as cell-based. Particulars: Homo sapiens, platelet rich plasma from healthy test subjects, 10 minutes at 37° C. preincubation, 50% change in optical density, read-out: Inhibition of platelet aggregation EC50. How it is done: 2. Antithrombotic activity Method: Thrombocyte aggregation is measured in platelet rich plasma from healthy test subjects using the Born and Cross method (J. Physiol. 170, 397 (1964)). In order to inhibit coagulation the blood is mixed with sodium citrate 3.14% in a ratio by volume of 1:10. Collagen-induced aggregation: The course of the decrease in optical density of the platelet suspension is photometrically measured and recorded after the addition of the substance which triggers aggregation. The rate of aggregation is deduced from the gradient angle of the density curve. The point on the curve where there is maximum transmittance is used to calculate the optical density. The quantity of collagen used is as little as possible but sufficient to give an irreversible reaction curve. Standard commercial collagen produced by Hormonchemie of Munich is used. Before the addition of the collagen the plasma is incubated for 10 minutes at 37° C. with the substance. From the measurements obtained, an EC50 is determined graphically, relating to a 50% change in optical density in terms of the inhibition of aggregation.

The subject of the next series is rat. The experiment in a line: tolerability after peroral administration in the rat. The series is classed as in vivo. The following applies: 2.0 g/kg.
The subject of series [3] is collagen-induced thrombocyte aggregation. The experiment in a line: collagen-induced thrombocyte aggregation ex vivo in Rhesus monkeys after oral administration. The following applies: oral administration of 1 mg/kg. How it is done:
Moreover, the compound of Example 8(5) inhibits the collagen-induced thrombocyte aggregation ex vivo in Rhesus monkeys, for example, after oral administration of 1 mg/kg for longer than 8 hours.

The subject of another series is mouse. The series is described as follows: tolerability after peroral administration in the mouse. The series is classed as in vivo. The following applies: 2.0 g/kg.

Structures can show the parent of a compound that is named as a salt.

What is called IC50 is the concentration that gives 50% inhibition. As usually defined, the EC50 is the midpoint of the concentration-response curve. With `N=C(N)c1ccc(-c2ccc(NC(=O)CCCC(=O)O)cc2)cc1` [1(1), 4-amidino-4'-(4-carboxybutyrylamino) biphenyl], the IC50 in series [1] was found to be 0.16 µM. Also, in the series on mice, the “sedation during the injection phase” value was 1 or 2 animals were sedated. In addition, the EC50 in series [2] was 1.1 µM.

`Cl.N=C(N)c1ccc(-c2ccc(C(=O)N3CCC(CC(=O)O)CC3)cc2)cc1` [Example 1(39), 4-amidino-4'-[(4-carboxymethylpiperidino)-carbonyl]biphenyl hydrochloride]: in series [1], the concentration for half-maximal inhibition (IC50) amounted to 0.024 µM. In addition, the animals died entry with mice (mice, intravenous, 60 mg/kg, three animals tested) is “none of the three animals tested died”. In addition, in series [2], the EC50 amounted to 0.1 µM.

With `COC(=O)CCN1CCN(C(=O)c2ccc(-c3ccc(C(=N)N)cc3)cc2)CC1` [6(75), 4-amidino-4'-[[(4-(2-methoxycarbonylethyl)-piperazino]carbonyl]biphenyldi hydrochloride], the IC50 in series [1] amounted to 27 µM. In series [2], the EC50 is 3.2 µM.

As to `COC(=O)CCCCCOc1ccc(-c2ccc(C(=N)N)cc2)cc1` [Example 6, Di-[4-Amidino-4'-(5-methoxycarbonylpentyloxy)biphenyl]dihydrogencarbonate], the IC50 in series [1] worked out at 0.57 µM. Also, the EC50 in series [2] was found to be 2.6 µM.

Turning to `N=C(N)c1ccc(-c2ccc(NS(=O)(=O)NCCC(=O)O)cc2)cc1` [1(69), 4-amidino-4'-[(2-carboxyethyl)aminosulphonyl-amino]biphenyl], in series [1], the IC50 is 3.1 µM. Besides, the EC50 in series [2] came out at 12 µM.

On to `COC(=O)C1CCN(C(=O)Cc2ccc(-c3ccc(C(=N)N)cc3)cc2)CC1` [6(56), 4-amidino-4'-[(4-methoxycarbonylpiperidino)-carbonylmethyl]biphenyl hydrochloride], for which, in series [1], the IC50 stood at 5.9 µM. Moreover, in series [2], the EC50 was determined as 4.9 µM.

With `COc1ccc(CCNC(=O)C(CC(=O)O)NC(=O)Cc2ccc(-c3ccc(C(=N)N)cc3)cc2)cc1.Cl` (stereo not drawn) [2(11), 4-amidino-4'-[[2-carboxy-1-[[2-(4-methoxyphenyl)-ethyl]aminocarbonyl]ethylamino]carbonylmethyl]biphenyl hydrochloride], the IC50 in series [1] amounted to 0.36 µM. In addition, the “sedation during the injection phase” value with mice is 1 or 2 animals were sedated. Further, in series [2], the 50% effective concentration (EC50) was determined as 2.2 µM.

Consider `COC(=O)CC1CCN(C(=O)c2ccc(-c3ccc(C(=N)NC(=O)OC)cc3)cc2)CC1` [Example 8(5), 4-(N-methoxycarbonylamidino)-4'-[(4-methoxycarbonylmethylpiperidino)carbonyl]biphenyl], for which the toxic effects result in the series on rat and with mouse was “no toxic effects were observed” each time. For the same compound, in series [3], the “duration of inhibition of collagen-induced thrombocyte aggregation ex vivo” value is more than 8 h.

For `COC(=O)CCCOc1ccc(-c2ccc(C(=N)N)cc2)cc1` [6(8), 4-amidino-4'-(3-methoxycarbonylpropyloxy)biphenyl dihydrogencarbonate], the IC50 in series [1] turned out to be 5.2 µM. The 50% effective concentration (EC50) in series [2] worked out at 3.4 µM.

Turning to `COC(=O)CNC(=O)COc1ccc(-c2ccc(C(=N)N)cc2)cc1` [6(2), 4-amidino-4'-[[(4-methoxycarbonylmethyl)-aminocarbonyl]methyloxy]biphenyl hydrochloride], the IC50 in series [1] came to 14 µM. Moreover, the EC50 in series [2] was 40 µM.

Turning to `N=C(N)c1ccc(-c2ccc(OCC(=O)NCCC(=O)O)cc2)cc1` [1(4), 4-amidino-4'-[[(2-carboxyethyl)aminocarbonyl]-methyloxy]biphenyl], in series [1], the IC50 came out at 0.35 µM. Moreover, in series [2], the EC50 was 1.7 µM.

Regarding `N=C(N)c1ccc(-c2ccc(C(=O)N3CCC(C(=O)O)CC3)cc2)cc1` [1(74), 4-amidino-4'-[(4-carboxypiperidino)carbonyl]-biphenyl hydrochloride], in series [1], the IC50 amounted to 2.7 µM. Moreover, the 50% effective concentration (EC50) in series [2] is 10.7 µM.

Take `N=C(N)c1ccc(-c2ccc(CC(=O)Nc3cccc(CC(=O)O)c3)cc2)cc1` [1(5), 4-amidino-4'-[[(3-carboxymethylphenyl)-aminocarbonyl]methyl]biphenyl]: the IC50 in series [1] came out at 65 µM. The EC50 in series [2] was more than 100 µM.

With `COC(=O)CC1CCCN(C(=O)c2ccc(-c3ccc(C(=N)N)cc3)cc2)C1` (stereo not drawn) [6(52), 4-amidino-4'-[(3-methoxycarbonylmethylpiperidino)-carbonyl]biphenyl hydrochloride], in series [1], the IC50 was found to be 16 µM. The EC50 in series [2] was 38 µM.

Take `COC(=O)CCCCOc1ccc(-c2ccc(C(=N)N)cc2)cc1` [6(9), 4-amidino-4'-(4-methoxycarbonylbutyloxy)biphenyl hydrochloride]: in series [1], the IC50 was 0.97 µM. In addition, the EC50 in series [2] came to 1.3 µM.

For `COC(=O)C1CCCN(C(=O)COc2ccc(-c3ccc(C(=N)N)cc3)cc2)C1` (stereo not drawn) [6(49), 4-amidino-4'-[[(3-methoxycarbonylpiperidino)-carbonyl]methyloxy]biphenyl hydrochloride], in series [1], the IC50 amounted to 32 µM. Moreover, the EC50 in series [2] stood at 36 µM.

With `N=C(N)c1ccc(-c2ccc(OCCCC(=O)O)cc2)cc1` [2(1), 4-amidino-4'-(3-carboxypropyloxy)biphenyl], the IC50 in series [1] was more than 10 µM. Further, in series [2], the EC50 was found to be 56 µM.

For the compound `COC(=O)CCNC(=O)COc1ccc(-c2ccc(C(=N)N)cc2)cc1` [6(3), 4-amidino-4'-[[(2-methoxycarbonylethyl)-aminocarbonyl]methyloxy]biphenyl h ydrochloride], in series [1], the IC50 was 18 µM. Moreover, the EC50 in series [2] is 17 µM.

As for `COC(=O)Cc1cccc(NC(=O)c2ccc(-c3ccc(C(=N)N)cc3)cc2)c1` [6(4), 4-amidino-4'-[[3-(methoxycarboxylmethyl)phenyl]-aminocarbonyl]biphenyl hydrochloride], the IC50 in series [1] came to 47 µM. The EC50 in series [2] was found to be 4.4 µM.
